The source of these data is US7163700B2, “Amorphous drug beads” (Capricorn Pharma, Inc., priority 2001, dated 2007).

The nature of the data set: Dissolution test of amorphous Itraconazole drug beads versus crystalline Itraconazole (FIG. 1). Type of data set: physicochemical. As to conditions: over the same time period. The source says: Quantities of Itraconazole and Pluronic™ F68 in a ratio of 9 parts Itraconazole to 1 part Pluronic™ F68 were melted separately in an oil bath. Once both components were completely melted, they were combined, emulsified with high shear, and poured onto a cold plate to cool rapidly.

The structures appear in SMILES notation.

Take `CCC(C)n1ncn(-c2ccc(N3CCN(c4ccc(OCC5COC(Cn6cncn6)(c6ccc(Cl)cc6Cl)O5)cc4)CC3)cc2)c1=O` (stereo not shown) [crystalline Itraconazole, 4-[4-[4-[4-[[2-(2,4-Dichlorophenyl)-2-(1H-1,2,4-triazol-1-ylmethyl)-1,3-dioxolan-4-yl]methoxy]phenyl]-1-piperazinyl]phenyl]-2,4-dihydro-2-(1-methylpropyl)-3H-1,2,4-triazol-3-one]: the “dissolution rate (percent dissolution versus time)” value is listed as 20%.
